Data: the supplement of paper PMC7840683
± gives the standard deviation of the averaged measurements.

Test system: HepaRG
Test: LDH release cytotoxicity, % of total lysis control; higher = more cytotoxic
Settings: 48 h
In short: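 HepaRG cells from a single lot were plated on collagen I-coated 96-well plates and treated in duplicate for 48 h with eight-point half-log series of test chemicals, starting at 100 µM, in serum-free induction medium containing 0.5% DMSO. Total lysis wells were given 0.1% Triton X. LDH released into 50 µL of spent medium was measured as resorufin fluorescence with CytoTox-ONE on a Tecan Safire. Percent cytotoxicity was normalized to on-plate vehicle and total lysis controls and then averaged across duplicates.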

SMILES	LDH release cytotoxicity (0.03162 µM)	LDH release cytotoxicity (0.1 µM)	LDH release cytotoxicity (0.3162278 µM)	LDH release cytotoxicity (1 µM)	LDH release cytotoxicity (3.16228 µM)	LDH release cytotoxicity (10 µM)	LDH release cytotoxicity (31.6228 µM)	LDH release cytotoxicity (100 µM)	further results
CCCCCCOCCO [2-Hexyloxyethanol]	-0.677 ± 0.42%	-1.05 ± 0.26%	-0.605 ± 0.04%	-0.402 ± 0.99%	-1.19 ± 0.28%	0.932 ± 0.059%	0.572 ± 0.76%	47.6 ± 2.2%	
Sc1nc2ccccc2s1 [2-Mercaptobenzothiazole]	-0.515 ± 0.59%	0.0327 ± 0.27%	-0.565 ± 1.2%	-0.708 ± 0.47%	0.4 ± 0.3%	0.658 ± 0.27%	1.05 ± 0.11%	3.61 ± 0.18%	
COc1ccc(C)cc1N [2-Methoxy-5-methylaniline]	-1.46 ± 2%	-3.72 ± 0.18%	-3.46 ± 0.056%	-4.05 ± 0.41%	-3.672 ± 0.029%	-4.54 ± 1.1%	-2.55 ± 0.51%	14.6 ± 1.5%	
COCCO [2-Methoxyethanol]	-2.71 ± 0.16%	-2.42 ± 0.11%	-1.84 ± 0.67%	-2.08%	-2.13 ± 0.46%	-1.562 ± 0.005%	0.278 ± 0.11%	2.52 ± 0.4%	
CC(O)CC(C)(C)O (stereo not given) [2-Methyl-2,4-pentanediol]	-1.84 ± 0.52%	-2.18 ± 0.3%	-2.81 ± 0.68%	-2.8 ± 1.5%	-2.62 ± 0.7%	-2.46 ± 1%	-2.69 ± 1.3%	-0.649 ± 1.4%	
Cc1ccccc1N [2-Methylaniline]	-1.2 ± 0.49%	-0.736 ± 0.52%	-0.698 ± 0.12%	-0.759 ± 0.47%	-1.37 ± 0.23%	-0.264 ± 0.12%	-0.213 ± 0.19%	0.285 ± 0.61%	
Oc1ccc2ccccc2c1 [2-Naphthalenol]	-0.471 ± 0.51%	-0.55 ± 0.25%	-0.787 ± 0.15%	-0.57 ± 0.2%	-0.679 ± 0.39%	-0.106 ± 0.093%	0.851 ± 0.3%	13.8 ± 0.73%	
Nc1ccc2ccccc2c1 [2-Naphthylamine]	-1.06 ± 0.22%	-1.31 ± 0.37%	-0.801 ± 0.7%	-1.43 ± 0.78%	-1.16 ± 0.89%	-0.463 ± 0.054%	0.128 ± 0.57%	0.14 ± 0.74%	
Cc1ccccc1[N+](=O)[O-] [2-Nitrotoluene]									LDH release cytotoxicity (0.0324133 µM): -0.207 ± 0.0063%; LDH release cytotoxicity (0.1025 µM): -0.999 ± 0.6%; LDH release cytotoxicity (0.324134 µM): -0.895 ± 0.32%; LDH release cytotoxicity (1.025 µM): -1.29 ± 0.7%; LDH release cytotoxicity (3.24133 µM): -0.412 ± 0.16%; LDH release cytotoxicity (10.25 µM): 0.00334 ± 0.67%; LDH release cytotoxicity (32.4133 µM): 0.414 ± 0.41%; LDH release cytotoxicity (102.5 µM): 1.14 ± 0.065%
O=C1OC(=O)C2C3C=CC(C3)C12 (stereo not given) [2-Norbornene-5,6-dicarboxylic anhydride]	-1.12 ± 0.28%	-0.887 ± 0.62%	-1.06 ± 0.25%	-1.3 ± 0.092%	-0.802 ± 0.41%	-1.42 ± 0.42%	-0.266 ± 0.16%	1.32 ± 0.12%	
OCCOc1ccccc1 [2-Phenoxyethanol]	-0.138 ± 0.14%	-0.772 ± 0.68%	-1.12 ± 0.39%	-1.13 ± 0.53%	-1.12 ± 0.78%	-1.27 ± 0.29%	-0.22 ± 0.34%	0.632 ± 1.1%	
Oc1ccccc1-c1ccccc1 [2-Phenylphenol]									LDH release cytotoxicity (0.0327296 µM): -1.34 ± 0.032%; LDH release cytotoxicity (0.1035 µM): -1.96 ± 0.059%; LDH release cytotoxicity (0.327296 µM): -0.0202 ± 0.57%; LDH release cytotoxicity (1.035 µM): -0.704 ± 0.57%; LDH release cytotoxicity (3.27296 µM): -1.21 ± 0.68%; LDH release cytotoxicity (10.35 µM): 0.0213 ± 0.73%; LDH release cytotoxicity (32.729574 µM): -0.237 ± 0.41%; LDH release cytotoxicity (103.5 µM): 0.858 ± 0.56%
Cc1ccc(C(C)(C)C)c(O)c1 [2-Tert-Butyl-5-methylphenol]	-2.27 ± 0.2%	-3.53 ± 0.25%	-3.17 ± 1.2%	-3.25 ± 0.28%	-3.05 ± 0.58%	-1.24 ± 0.75%	-1.73 ± 0.49%	1.45 ± 1.3%	
CCOCCOCCOCCO [2-[2-(2-Ethoxyethoxy)ethoxy]ethanol]	-2.06 ± 0.3%	-1.83 ± 0.41%	-2.87 ± 0.13%	-2.53 ± 0.46%	-2.5 ± 0.72%	-1.81 ± 0.26%	-1.33 ± 0.37%	0.397 ± 0.68%	
CCc1ccc(O)c(C(C)(C)C)c1 [2-tert-Butyl-4-ethylphenol]	-1.09 ± 0.39%	-1.23 ± 0.81%	-1.36 ± 0.88%	-2.09 ± 0.78%	-0.936 ± 0.3%	0.529 ± 0.44%	-0.602 ± 0.34%	0.703 ± 0.44%	
